# Assays:
# Experiment in all cases: KINOMEscan scanMAX
# Format in all cases: binding
# Details in all cases: read-out: Percent Control
# [1] = target: T1, PIP5K2C (Homo sapiens, UniProt Q8TBX8)
# T1 construct: purchased Eurofins Discovery (DiscoverX KINOMEscan scanMAX)
# Procedure: (§1) The kinome-wide binding assay was performed by Eurofins Discovery using the scanMAX screening platform. More information can be found on the Eurofins Discovery Web site.
# [2] = target: T2, MARK2 (Homo sapiens, UniProt Q7KZI7)
# T2 construct: purchased Eurofins Discovery (DiscoverX KINOMEscan scanMAX)
# Procedure: as §1
# [3] = target: T3, PIK3CA (Homo sapiens, UniProt P42336)
# T3 construct: purchased Eurofins Discovery (DiscoverX KINOMEscan scanMAX)
# Procedure: as §1
# [4] = target: T4, MARK3 (Homo sapiens, UniProt P27448)
# T4 construct: purchased Eurofins Discovery (DiscoverX KINOMEscan scanMAX)
# Procedure: as §1
# [5] = target: T5, MEK5 (Homo sapiens, UniProt Q13163)
# T5 construct: purchased Eurofins Discovery (DiscoverX KINOMEscan scanMAX)
# Procedure: as §1
# [6] = target: T6, DMPK (Homo sapiens, UniProt Q09013)
# T6 construct: purchased Eurofins Discovery (DiscoverX KINOMEscan scanMAX)
# Procedure: as §1
# [7] = target: T7, PRKCE (Homo sapiens, UniProt Q02156)
# T7 construct: purchased Eurofins Discovery (DiscoverX KINOMEscan scanMAX)
# Procedure: as §1
# [8] = target: T8, PIK3CA(E545A) (Homo sapiens, UniProt P42336, E545A)
# T8 construct: purchased Eurofins Discovery (DiscoverX KINOMEscan scanMAX)
# Procedure: as §1
# [9] = target: T9, SLK (Homo sapiens, UniProt Q9H2G2)
# T9 construct: purchased Eurofins Discovery (DiscoverX KINOMEscan scanMAX)
# Procedure: as §1
# [10] = target: T10, DCAMKL3 (Homo sapiens, UniProt Q9C098)
# T10 construct: purchased Eurofins Discovery (DiscoverX KINOMEscan scanMAX)
# Procedure: as §1
# [11] = target: T11, AURKC (Homo sapiens, UniProt Q9UQB9)
# T11 construct: purchased Eurofins Discovery (DiscoverX KINOMEscan scanMAX)
# Procedure: as §1
# [12] = target: T12, LCK (Homo sapiens, UniProt P06239)
# T12 construct: purchased Eurofins Discovery (DiscoverX KINOMEscan scanMAX)
# Procedure: as §1
# [13] = target: T13, STK33 (Homo sapiens, UniProt Q9BYT3)
# T13 construct: purchased Eurofins Discovery (DiscoverX KINOMEscan scanMAX)
# Procedure: as §1
# [14] = target: T14, CAMK2B (Homo sapiens, UniProt Q13554)
# T14 construct: purchased Eurofins Discovery (DiscoverX KINOMEscan scanMAX)
# Procedure: as §1
# [15] = target: T15, PIK3C2G (Homo sapiens, UniProt O75747)
# T15 construct: purchased Eurofins Discovery (DiscoverX KINOMEscan scanMAX)
# Procedure: as §1
# [16] = target: T16, PAK2 (Homo sapiens, UniProt Q13177)
# T16 construct: purchased Eurofins Discovery (DiscoverX KINOMEscan scanMAX)
# Procedure: as §1
# [17] = target: T17, DMPK2 (Homo sapiens, UniProt Q6DT37)
# T17 construct: purchased Eurofins Discovery (DiscoverX KINOMEscan scanMAX)
# Procedure: as §1
# [18] = target: T18, CDK8 (Homo sapiens, UniProt P49336)
# T18 construct: purchased Eurofins Discovery (DiscoverX KINOMEscan scanMAX)
# Procedure: as §1
# [19] = target: T19, PAK7 (Homo sapiens, UniProt Q9P286)
# T19 construct: purchased Eurofins Discovery (DiscoverX KINOMEscan scanMAX)
# Procedure: as §1
# [20] = target: T20, CAMK1B (Homo sapiens, UniProt Q6P2M8)
# T20 construct: purchased Eurofins Discovery (DiscoverX KINOMEscan scanMAX)
# Procedure: as §1
# [21] = target: T21, ANKK1 (Homo sapiens, UniProt Q8NFD2)
# T21 construct: purchased Eurofins Discovery (DiscoverX KINOMEscan scanMAX)
# Procedure: as §1
# [22] = target: T22, EPHA2 (Homo sapiens, UniProt P29317)
# T22 construct: purchased Eurofins Discovery (DiscoverX KINOMEscan scanMAX)
# Procedure: as §1
# [23] = target: T23, CSNK1E (Homo sapiens, UniProt P49674)
# T23 construct: purchased Eurofins Discovery (DiscoverX KINOMEscan scanMAX)
# Procedure: as §1
# [24] = target: T24, TTK (Homo sapiens, UniProt P33981)
# T24 construct: purchased Eurofins Discovery (DiscoverX KINOMEscan scanMAX)
# Procedure: as §1
# [25] = target: T25, PDPK1 (Homo sapiens, UniProt O15530)
# T25 construct: purchased Eurofins Discovery (DiscoverX KINOMEscan scanMAX)
# Procedure: as §1
# [26] = target: T26, CDC2L1 (Homo sapiens, UniProt P21127)
# T26 construct: purchased Eurofins Discovery (DiscoverX KINOMEscan scanMAX)
# Procedure: as §1
# [27] = target: T27, GRK3 (Homo sapiens, UniProt P35626)
# T27 construct: purchased Eurofins Discovery (DiscoverX KINOMEscan scanMAX)
# Procedure: as §1
# [28] = target: T28, EPHB3 (Homo sapiens, UniProt P54753)
# T28 construct: purchased Eurofins Discovery (DiscoverX KINOMEscan scanMAX)
# Procedure: as §1
# [29] = target: T29, BIKE (Homo sapiens, UniProt Q9NSY1)
# T29 construct: purchased Eurofins Discovery (DiscoverX KINOMEscan scanMAX)
# Procedure: as §1
# [30] = target: T30, EIF2AK1 (Homo sapiens, UniProt Q9BQI3)
# T30 construct: purchased Eurofins Discovery (DiscoverX KINOMEscan scanMAX)
# Procedure: as §1
# [31] = target: T31, MAP4K3 (Homo sapiens, UniProt Q8IVH8)
# T31 construct: purchased Eurofins Discovery (DiscoverX KINOMEscan scanMAX)
# Procedure: as §1
# [32] = target: T32, CASK (Homo sapiens, UniProt O14936)
# T32 construct: purchased Eurofins Discovery (DiscoverX KINOMEscan scanMAX)
# Procedure: as §1
# [33] = target: T33, BTK (Homo sapiens, UniProt Q06187)
# T33 construct: purchased Eurofins Discovery (DiscoverX KINOMEscan scanMAX)
# Procedure: as §1
# [34] = target: T34, CAMK1G (Homo sapiens, UniProt Q96NX5)
# T34 construct: purchased Eurofins Discovery (DiscoverX KINOMEscan scanMAX)
# Procedure: as §1
# T21 sequence (Q8NFD2 whole entry): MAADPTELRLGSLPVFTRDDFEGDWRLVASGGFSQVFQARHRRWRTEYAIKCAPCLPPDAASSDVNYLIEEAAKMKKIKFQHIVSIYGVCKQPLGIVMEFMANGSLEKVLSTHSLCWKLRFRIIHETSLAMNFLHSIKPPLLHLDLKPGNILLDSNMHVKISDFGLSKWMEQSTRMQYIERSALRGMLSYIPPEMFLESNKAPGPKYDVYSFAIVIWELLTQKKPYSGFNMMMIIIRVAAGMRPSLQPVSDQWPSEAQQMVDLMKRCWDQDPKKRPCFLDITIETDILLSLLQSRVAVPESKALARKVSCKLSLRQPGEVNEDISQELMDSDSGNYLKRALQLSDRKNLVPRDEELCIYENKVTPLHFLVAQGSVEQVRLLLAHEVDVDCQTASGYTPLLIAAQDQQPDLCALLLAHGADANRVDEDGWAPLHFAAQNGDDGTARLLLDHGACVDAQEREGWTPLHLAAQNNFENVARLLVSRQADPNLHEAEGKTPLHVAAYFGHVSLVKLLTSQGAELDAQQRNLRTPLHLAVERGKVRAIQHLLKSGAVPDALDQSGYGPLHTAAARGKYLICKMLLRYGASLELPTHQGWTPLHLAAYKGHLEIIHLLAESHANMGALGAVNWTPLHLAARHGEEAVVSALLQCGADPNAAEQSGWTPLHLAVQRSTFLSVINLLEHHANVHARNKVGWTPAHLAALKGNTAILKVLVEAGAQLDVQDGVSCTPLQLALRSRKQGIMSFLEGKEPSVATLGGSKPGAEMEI
# T27 sequence (P35626 whole entry): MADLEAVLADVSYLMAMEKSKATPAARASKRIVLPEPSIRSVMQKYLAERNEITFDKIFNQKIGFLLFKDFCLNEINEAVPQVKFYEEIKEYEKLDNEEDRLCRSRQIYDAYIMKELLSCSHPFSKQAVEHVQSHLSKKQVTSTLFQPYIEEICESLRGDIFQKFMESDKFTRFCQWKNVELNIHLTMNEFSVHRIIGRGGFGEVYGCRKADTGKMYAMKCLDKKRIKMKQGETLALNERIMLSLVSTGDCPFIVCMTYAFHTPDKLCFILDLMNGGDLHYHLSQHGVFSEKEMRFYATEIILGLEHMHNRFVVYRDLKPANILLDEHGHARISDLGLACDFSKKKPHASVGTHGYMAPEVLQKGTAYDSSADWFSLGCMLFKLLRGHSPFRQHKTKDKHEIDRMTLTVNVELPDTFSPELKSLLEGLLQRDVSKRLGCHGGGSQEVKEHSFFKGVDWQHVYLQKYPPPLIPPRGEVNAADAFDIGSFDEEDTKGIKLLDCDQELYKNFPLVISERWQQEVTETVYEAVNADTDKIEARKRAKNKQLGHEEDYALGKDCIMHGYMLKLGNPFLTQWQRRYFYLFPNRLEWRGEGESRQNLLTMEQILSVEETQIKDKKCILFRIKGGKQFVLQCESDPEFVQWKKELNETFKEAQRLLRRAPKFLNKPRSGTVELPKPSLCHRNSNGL
# T14 sequence (Q13554 whole entry): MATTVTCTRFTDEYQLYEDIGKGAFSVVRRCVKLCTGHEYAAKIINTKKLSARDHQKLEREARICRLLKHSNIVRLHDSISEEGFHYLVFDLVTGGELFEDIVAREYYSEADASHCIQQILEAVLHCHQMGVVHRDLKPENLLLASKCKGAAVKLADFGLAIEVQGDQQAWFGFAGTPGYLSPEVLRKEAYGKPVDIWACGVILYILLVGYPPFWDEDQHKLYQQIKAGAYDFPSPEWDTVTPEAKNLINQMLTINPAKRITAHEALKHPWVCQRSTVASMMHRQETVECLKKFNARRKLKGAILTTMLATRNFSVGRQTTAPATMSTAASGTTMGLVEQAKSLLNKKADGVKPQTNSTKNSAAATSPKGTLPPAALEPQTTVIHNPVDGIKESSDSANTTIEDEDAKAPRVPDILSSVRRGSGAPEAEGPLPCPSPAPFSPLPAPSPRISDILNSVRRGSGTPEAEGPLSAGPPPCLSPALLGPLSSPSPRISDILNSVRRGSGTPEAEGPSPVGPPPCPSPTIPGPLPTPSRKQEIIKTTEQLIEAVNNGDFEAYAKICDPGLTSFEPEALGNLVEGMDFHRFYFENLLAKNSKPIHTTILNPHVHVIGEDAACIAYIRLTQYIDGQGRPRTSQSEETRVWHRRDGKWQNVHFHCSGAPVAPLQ
# T12 sequence (P06239 whole entry): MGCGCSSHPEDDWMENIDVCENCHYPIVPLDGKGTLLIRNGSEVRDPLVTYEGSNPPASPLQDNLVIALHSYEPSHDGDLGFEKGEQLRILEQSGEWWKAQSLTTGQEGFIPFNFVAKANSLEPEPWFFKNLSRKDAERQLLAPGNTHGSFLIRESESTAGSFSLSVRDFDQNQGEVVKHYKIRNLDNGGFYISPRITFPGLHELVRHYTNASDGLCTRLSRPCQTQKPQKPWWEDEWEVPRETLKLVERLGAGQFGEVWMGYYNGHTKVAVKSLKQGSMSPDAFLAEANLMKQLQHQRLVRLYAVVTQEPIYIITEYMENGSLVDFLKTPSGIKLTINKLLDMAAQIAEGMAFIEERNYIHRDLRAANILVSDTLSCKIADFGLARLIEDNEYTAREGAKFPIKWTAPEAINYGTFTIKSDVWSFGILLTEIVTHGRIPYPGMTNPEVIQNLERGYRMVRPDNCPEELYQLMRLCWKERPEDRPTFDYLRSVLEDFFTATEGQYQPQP
# T1 sequence (Q8TBX8 whole entry): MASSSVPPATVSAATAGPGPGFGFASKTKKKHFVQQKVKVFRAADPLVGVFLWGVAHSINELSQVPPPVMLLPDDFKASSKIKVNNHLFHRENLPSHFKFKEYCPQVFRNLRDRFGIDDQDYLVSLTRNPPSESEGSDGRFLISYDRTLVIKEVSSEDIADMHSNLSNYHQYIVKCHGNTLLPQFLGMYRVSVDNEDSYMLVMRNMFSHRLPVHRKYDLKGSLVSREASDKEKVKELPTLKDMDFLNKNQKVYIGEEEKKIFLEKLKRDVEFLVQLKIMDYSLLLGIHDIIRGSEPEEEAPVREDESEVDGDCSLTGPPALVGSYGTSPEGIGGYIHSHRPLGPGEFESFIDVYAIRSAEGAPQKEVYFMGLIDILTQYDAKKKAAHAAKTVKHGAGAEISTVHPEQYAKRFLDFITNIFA
# T9 sequence (Q9H2G2 whole entry): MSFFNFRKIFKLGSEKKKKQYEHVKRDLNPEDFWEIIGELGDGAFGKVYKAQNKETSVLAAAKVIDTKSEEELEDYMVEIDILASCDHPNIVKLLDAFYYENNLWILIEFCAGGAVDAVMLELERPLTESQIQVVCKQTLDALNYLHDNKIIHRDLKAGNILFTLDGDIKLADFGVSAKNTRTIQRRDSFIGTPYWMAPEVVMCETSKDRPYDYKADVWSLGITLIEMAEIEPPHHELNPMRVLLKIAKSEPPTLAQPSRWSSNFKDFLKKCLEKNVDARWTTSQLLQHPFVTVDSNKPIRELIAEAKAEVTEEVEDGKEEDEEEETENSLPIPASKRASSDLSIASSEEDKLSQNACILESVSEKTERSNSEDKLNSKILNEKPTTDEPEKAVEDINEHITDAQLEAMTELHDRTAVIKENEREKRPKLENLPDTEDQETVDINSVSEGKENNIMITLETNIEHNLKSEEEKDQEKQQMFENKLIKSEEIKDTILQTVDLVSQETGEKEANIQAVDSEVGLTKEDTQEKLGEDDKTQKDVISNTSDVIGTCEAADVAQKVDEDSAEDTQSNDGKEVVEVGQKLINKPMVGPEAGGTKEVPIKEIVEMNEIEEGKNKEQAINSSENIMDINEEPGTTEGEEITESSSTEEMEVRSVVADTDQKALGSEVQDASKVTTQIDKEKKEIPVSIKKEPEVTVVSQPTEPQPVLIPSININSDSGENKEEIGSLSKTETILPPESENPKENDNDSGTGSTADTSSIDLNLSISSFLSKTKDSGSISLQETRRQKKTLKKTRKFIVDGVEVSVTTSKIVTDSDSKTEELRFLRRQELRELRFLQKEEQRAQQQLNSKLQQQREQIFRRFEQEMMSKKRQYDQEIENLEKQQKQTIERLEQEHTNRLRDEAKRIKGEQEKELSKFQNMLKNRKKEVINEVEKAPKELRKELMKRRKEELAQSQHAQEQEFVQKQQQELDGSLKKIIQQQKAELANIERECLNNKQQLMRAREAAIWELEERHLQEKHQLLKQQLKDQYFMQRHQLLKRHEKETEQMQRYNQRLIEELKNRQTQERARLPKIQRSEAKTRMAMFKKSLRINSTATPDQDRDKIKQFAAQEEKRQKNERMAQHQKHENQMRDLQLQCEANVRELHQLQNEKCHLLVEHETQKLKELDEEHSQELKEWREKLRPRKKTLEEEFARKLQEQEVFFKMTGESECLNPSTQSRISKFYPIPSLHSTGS
# T2 sequence (Q7KZI7 whole entry): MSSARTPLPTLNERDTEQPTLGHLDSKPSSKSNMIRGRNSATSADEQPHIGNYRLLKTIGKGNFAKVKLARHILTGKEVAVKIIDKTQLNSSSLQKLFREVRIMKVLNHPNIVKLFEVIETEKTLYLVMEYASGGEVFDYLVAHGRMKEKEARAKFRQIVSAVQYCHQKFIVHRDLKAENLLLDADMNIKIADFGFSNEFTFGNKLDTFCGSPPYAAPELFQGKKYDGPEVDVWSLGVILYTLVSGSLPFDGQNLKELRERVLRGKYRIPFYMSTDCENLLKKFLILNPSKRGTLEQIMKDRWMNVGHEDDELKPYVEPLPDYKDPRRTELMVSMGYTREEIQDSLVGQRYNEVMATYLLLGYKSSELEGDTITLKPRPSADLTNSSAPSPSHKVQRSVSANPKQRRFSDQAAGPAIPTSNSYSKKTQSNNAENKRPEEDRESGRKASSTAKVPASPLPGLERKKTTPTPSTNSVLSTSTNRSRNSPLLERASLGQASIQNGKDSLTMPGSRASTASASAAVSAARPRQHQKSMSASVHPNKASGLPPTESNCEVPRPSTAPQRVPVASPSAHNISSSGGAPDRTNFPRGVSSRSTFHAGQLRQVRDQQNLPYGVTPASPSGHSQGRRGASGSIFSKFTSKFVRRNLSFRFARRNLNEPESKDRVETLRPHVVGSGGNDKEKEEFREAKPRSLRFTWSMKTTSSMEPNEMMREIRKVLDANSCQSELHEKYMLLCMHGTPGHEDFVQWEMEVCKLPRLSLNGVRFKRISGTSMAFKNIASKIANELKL
smiles,measurement,setting,value
Cc1cc(Nc2ccc(F)c(CC3(C(=O)N4CCC(F)(CN5CCN(c6ccc(N7CCC(=O)NC7=O)cn6)CC5)CC4)CCN(Cc4cccc(Cl)c4F)CC3)n2)n[nH]1 [SK5527],remaining binding at 0.1 µM,[1]; 100 nM,100%
same,remaining binding at 1 µM,[1]; 1000 nM,100%
same,remaining binding at 0.1 µM,[2]; 100 nM,91%
same,remaining binding at 1 µM,[2]; 1000 nM,62%
same,remaining binding at 0.1 µM,[3]; 100 nM,94%
same,remaining binding at 1 µM,[3]; 1000 nM,90%
same,remaining binding at 0.1 µM,[4]; 100 nM,100%
same,remaining binding at 1 µM,[4]; 1000 nM,87%
same,remaining binding at 0.1 µM,[5]; 100 nM,83%
same,remaining binding at 1 µM,[5]; 1000 nM,61%
same,remaining binding at 0.1 µM,[6]; 100 nM,88%
same,remaining binding at 1 µM,[6]; 1000 nM,90%
same,remaining binding at 0.1 µM,[7]; 100 nM,100%
same,remaining binding at 1 µM,[7]; 1000 nM,95%
same,remaining binding at 0.1 µM,[8]; 100 nM,72%
same,remaining binding at 1 µM,[8]; 1000 nM,100%
same,remaining binding at 0.1 µM,[9]; 100 nM,95%
same,remaining binding at 1 µM,[9]; 1000 nM,100%
same,remaining binding at 0.1 µM,[10]; 100 nM,100%
same,remaining binding at 1 µM,[10]; 1000 nM,100%
same,remaining binding at 0.1 µM,[11]; 100 nM,100%
same,remaining binding at 1 µM,[11]; 1000 nM,85%
same,remaining binding at 0.1 µM,[12]; 100 nM,82%
same,remaining binding at 1 µM,[12]; 1000 nM,84%
same,remaining binding at 0.1 µM,[13]; 100 nM,100%
same,remaining binding at 1 µM,[13]; 1000 nM,97%
same,remaining binding at 0.1 µM,[14]; 100 nM,100%
same,remaining binding at 1 µM,[14]; 1000 nM,100%
same,remaining binding at 0.1 µM,[15]; 100 nM,71%
same,remaining binding at 1 µM,[15]; 1000 nM,98%
same,remaining binding at 0.1 µM,[16]; 100 nM,100%
same,remaining binding at 1 µM,[16]; 1000 nM,79%
same,remaining binding at 0.1 µM,[17]; 100 nM,100%
same,remaining binding at 1 µM,[17]; 1000 nM,100%
same,remaining binding at 0.1 µM,[18]; 100 nM,88%
same,remaining binding at 1 µM,[18]; 1000 nM,89%
same,remaining binding at 0.1 µM,[19]; 100 nM,98%
same,remaining binding at 1 µM,[19]; 1000 nM,74%
same,remaining binding at 0.1 µM,[20]; 100 nM,100%
same,remaining binding at 1 µM,[20]; 1000 nM,100%
same,remaining binding at 0.1 µM,[21]; 100 nM,73%
same,remaining binding at 1 µM,[21]; 1000 nM,71%
same,remaining binding at 0.1 µM,[22]; 100 nM,100%
same,remaining binding at 1 µM,[22]; 1000 nM,100%
same,remaining binding at 0.1 µM,[23]; 100 nM,92%
same,remaining binding at 1 µM,[23]; 1000 nM,91%
same,remaining binding at 0.1 µM,[24]; 100 nM,100%
same,remaining binding at 1 µM,[24]; 1000 nM,100%
same,remaining binding at 0.1 µM,[25]; 100 nM,89%
same,remaining binding at 1 µM,[25]; 1000 nM,100%
same,remaining binding at 0.1 µM,[26]; 100 nM,98%
same,remaining binding at 1 µM,[26]; 1000 nM,95%
same,remaining binding at 0.1 µM,[27]; 100 nM,100%
same,remaining binding at 1 µM,[27]; 1000 nM,100%
same,remaining binding at 0.1 µM,[28]; 100 nM,100%
same,remaining binding at 1 µM,[28]; 1000 nM,100%
same,remaining binding at 0.1 µM,[29]; 100 nM,80%
same,remaining binding at 1 µM,[29]; 1000 nM,73%
same,remaining binding at 0.1 µM,[30]; 100 nM,81%
same,remaining binding at 1 µM,[30]; 1000 nM,70%
same,remaining binding at 0.1 µM,[31]; 100 nM,82%
same,remaining binding at 1 µM,[31]; 1000 nM,72%
same,remaining binding at 0.1 µM,[32]; 100 nM,93%
same,remaining binding at 1 µM,[32]; 1000 nM,87%
same,remaining binding at 0.1 µM,[33]; 100 nM,88%
same,remaining binding at 1 µM,[33]; 1000 nM,80%
same,remaining binding at 0.1 µM,[34]; 100 nM,100%
same,remaining binding at 1 µM,[34]; 1000 nM,92%

# Reference: article PMC12670405, “Second-Generation AURKA-Targeting PROTACs: Structural Optimization toward in Vivo Degradation in Neuroblastoma” (Journal of Medicinal Chemistry, 2025)
